Measurements taken from patent publication US4065570A (priority 1975, dated 1977).
Like-named read-outs stand apart in the source and are kept apart here.

Tests used:
[1] = tested on: viruses of the Picorna group; assay: antiviral activity (general statements); format: cell-based; conditions: result in words
Protocol: The in vitro activity of representative compounds of the present invention are set forth below.
(§1) In preparing the compounds for testing, they were handled aseptically throughout. The compounds were dissolved in a minimum amount of a suitable solvent, and the final dilutions were made up to the required volume in a complete culture medium in a concentration not exceeding the predetermined maximum non-cytotoxic levels.
(§2) The cell cultures used in all primary in vitro antipicorna virus screening tests were an established cell line of the African green monkey kidney (VERO), a primary cell culture of the Cercopythecus monkey kidney, or human embryonic lung diploid cells WI-38.
(§3) The cells were grown in test tubes in a suitable medium. Immediately before use the initial medium was replaced with the one which contained the test compound in an appropriate concentration. After the virus was added, the infected culture was incubated at 37° C for a number of days and the cytopathic effect of the virus observed and recorded. The results were read every day in all of the tubes and the destruction of cells assessed in precentage of the cell sheet destroyed: 0-25-50-75-100%. As controls, cells with only virus (for cytopathic effect) or with only the compound (for cytotoxic effect) were used as well as the normal, uninfected cells (no cytotoxic -- no cytopathic effects).
(§4) Net difference in cytopathic effect between treated and control tubes expressed in percentage give the extent of the inhibitory activity of the substance.

Echo 9 = format: cell-based; conditions: Echo 9, Vero, 31.6 TCID50
Protocol: as §1, §2
(§5) Standard batches of the viruses were made by growing the virus in an appropriate cell culture and then making a pool which was dispersed in ampoules and kept frozen at -76° C until used. The titer of each virus was determined in the cell cultures used.
as §3, §4
(§6) The TCID50 represents the tissue culture infective dose of virus that will destroy 50% of the cells.

Echo 11 = format: cell-based; conditions: Echo 11, Primary Monkey Kidney Cells, 178 TCID50
Protocol: as §1, §2, §5, §3, §4, §6

Vero cells = assay: cytotoxicity against Vero cells; format: cell-based, African green monkey; conditions: for Toxicity (%): Vero
Protocol: as §1, §2
(§7) The cytotoxic stuides were performed on each of the compounds to determine the level of response of the cells used to the potentially toxic action of the substances.
as §3

Polio I = assay: organism not typed; format: cell-based; conditions: Vero
[2] = tested on: primary monkey kidney cells; assay: cytotoxicity against primary monkey kidney cells; format: cell-based, Cercopythecus monkey; conditions: for Toxicity (%): pMK
Protocol: as §1, §2, §7, §3

[3] = tested on: Mahoney strain of Polio virus; format: in vivo, Cynomolgus monkey
mice = assay: LD50 in mice; format: in vivo
Cynomolgus monkeys = conditions: cynomolgus monkey, in vivo, 25 mg/kg/day
[4] = Virus + Substance, 25 mg/kg/day, i.p. or s.c.
[5] = Virus + Substance, 25 mg/kg/day, 4th Day
[6] = Virus + Substance, 25 mg/kg/day, 8th Day
[7] = Virus + Substance, 25 mg/kg/day, 11th Day
[8] = Virus + Substance, 25 mg/kg/day, 15th Day

Question: Which results are given for “Acetylated 5-(3',4',-Dimethoxybenzal) hydantoin [Example 14]”?
Answer: degree of antiviral activity [1]: greater degree of antiviral activity than the unacetylated compound; % Inhibition (Echo 9; 0.1 μg/ml): 8%; % Inhibition (Echo 9; 0.3 μg/ml): 29%; % Inhibition (Echo 9; 0.7 μg/ml): 42%; % Inhibition (Echo 9; 1.0 μg/ml): 71%; % Inhibition (Echo 9; 3.3 μg/ml): 92%; % Inhibition (Echo 9; 6.7 μg/ml): 100%; % Inhibition (Echo 9; 10.0 μg/ml): 100%; % Inhibition (Echo 11; 0.1 μg/ml): 7%; % Inhibition (Echo 11; 0.3 μg/ml): 32%; % Inhibition (Echo 11; 0.7 μg/ml): 32%; % Inhibition (Echo 11; 1.0 μg/ml): 68%; % Inhibition (Echo 11; 3.3 μg/ml): 100%; % Inhibition (Echo 11; 6.7 μg/ml): 100%; % Inhibition (Echo 11; 10 μg/ml): 100%; % Inhibition (Echo 11; 25 μg/ml): 100%; % Inhibition (Echo 11; 50 μg/ml): 100%; % Inhibition (Echo 11; 100 μg/ml): 100%; Cytotoxicity CTD50 (Vero cells; Vero cells, 50% inhibition of the cell growth): > 100 µg/mL; Cytotoxicity CTD0 (Vero cells; Vero cells, maximal non-toxic concentration): > 10 µg/mL; Toxicity (%) (Vero cells; 0.1 micrograms/ml): 0%; Toxicity (%) (Vero cells; 0.3 micrograms/ml): 0%; Toxicity (%) (Vero cells; 0.7 micrograms/ml): 0%; Toxicity (%) (Vero cells; 1.0 micrograms/ml): 0%; Toxicity (%) (Vero cells; 3.3 micrograms/ml): 0%; Toxicity (%) (Vero cells; 6.7 micrograms/ml): 0%; Toxicity (%) (Vero cells; 10 micrograms/ml): 10%; Toxicity (%) (Vero cells; 25 micrograms/ml): 10%; Toxicity (%) (Vero cells; 33.3 micrograms/ml): 10%; Toxicity (%) (Vero cells; 50 micrograms/ml): 10%; Toxicity (%) (Vero cells; 66.7 micrograms/ml): 10%; Toxicity (%) (Vero cells; 75 micrograms/ml): 10%; Toxicity (%) (Vero cells; 100 micrograms/ml): 10%; Toxicity (%) (Vero cells; 150 micrograms/ml): 10%; Toxicity (%) (Vero cells; 200 micrograms/ml): 25%; Toxicity (%) (Vero cells; 250 micrograms/ml): 75%; Toxicity (%) (Vero cells; 300 micrograms/ml): 100%; % Inhibition (Polio I; 316 TCID50, 0.5 μg/ml): 93%; % Inhibition (Polio I; 316 TCID50, 1 μg/ml): 100%; % Inhibition (Polio I; 316 TCID50, 5 μg/ml): 100%; % Inhibition (Polio I; 316 TCID50, 10 μg/ml): 100%; Cytotoxicity CTD50 ([2]; Primary Monkey Kidney Cells, 50% inhibition of the cell growth): > 100 µg/mL; Cytotoxicity CTD0 ([2]; Primary Monkey Kidney Cells, maximal non-toxic concentration): > 100 µg/mL; Toxicity (%) ([2]; 0.1 micrograms/ml): 0%; Toxicity (%) ([2]; 0.3 micrograms/ml): 0%; Toxicity (%) ([2]; 0.7 micrograms/ml): 0%; Toxicity (%) ([2]; 1.0 micrograms/ml): 0%; Toxicity (%) ([2]; 3.3 micrograms/ml): 0%; Toxicity (%) ([2]; 6.7 micrograms/ml): 0%; Toxicity (%) ([2]; 10 micrograms/ml): 0%; Toxicity (%) ([2]; 25 micrograms/ml): 0%; Toxicity (%) ([2]; 33.3 micrograms/ml): 0%; Toxicity (%) ([2]; 50 micrograms/ml): 0%; Toxicity (%) ([2]; 66.7 micrograms/ml): 0%; Toxicity (%) ([2]; 75 micrograms/ml): 0%; Toxicity (%) ([2]; 100 micrograms/ml): 0%; Toxicity (%) ([2]; 150 micrograms/ml): 10%; Toxicity (%) ([2]; 200 micrograms/ml): 75%; Toxicity (%) ([2]; 250 micrograms/ml): 100%; Toxicity (%) ([2]; 300 micrograms/ml): 100%; effectiveness against the Mahoney Polio virus strain in the infected animals ([3]; Cynomolgus monkeys, result in words): effective against the Mahoney Polio virus strain in the infected animals; Average Day of Paralysis [3, 4]: 13.5; Cumulative morbidity, paralyses, % [3, 4]: 25.0%; Cumulative morbidity, paralyses, No. [3, 4]: 2/8; Histopathological changes as brain, % [3, 4]: 20.0%; Histopathological changes as brain, No. [3, 4]: 2/10; Presence of poliovirus in rectal, % [3, 5]: 36.4%; Presence of poliovirus in rectal, No. [3, 5]: 4/11; Presence of poliovirus in rectal, % [3, 6]: 25.0%; Presence of poliovirus in rectal, No. [3, 6]: 2/8; Presence of poliovirus in rectal, % [3, 7]: 25.0%; Presence of poliovirus in rectal, No. [3, 7]: 2/8; Presence of poliovirus in rectal, % [3, 8]: 16.7%; Presence of poliovirus in rectal, No. [3, 8]: 1/6; subacute LD50 (mice; intraperitoneal, daily injection during 16 days): 400 to 500 mg/kg; LD50 (mice; oral administration): greater than 1,300 mg/kg; Cumulative morbidity, paralyses, % (Cynomolgus monkeys): 0%; Cumulative morbidity, paralyses, No. (Cynomolgus monkeys): 0/5; Histopathological changes as brain, % (Cynomolgus monkeys): 0%; Histopathological changes as brain, No. (Cynomolgus monkeys): 0/5
